Data: patent US20240358692A1, “TREATMENT OF SCLERODERMA” (Aisa Pharma, Inc., priority 2023, published 2024)

System: participants with SSc-RP
Assay: Average severity of weekly RP attacks (VAS 0-10)
Type: in vivo, human
Conditions: for Average Severity (0-10) of weekly RP attacks, Median / Average severity of weekly RP attacks, Change from Baseline, Mean / Average severity of weekly RP attacks, Change from Baseline, Median / Average severity of weekly RP attacks, Percent Change from Baseline, Mean / Average severity of weekly RP attacks, Percent Change from Baseline, Median / Average Severity (0-10) of weekly RP attacks, Mean: all attacks
Excerpt: The absolute change in average severity of weekly RP attacks (VAS 0-10 cm scale) from baseline to the end of each Dosing Period was and will be a secondary outcome variable. The sponsor-developed participant-informed diary will be used to record data. Average severity of weekly RP attacks is defined as the total severity scores of RP attacks divided by total number of RP attacks within the last 7 days of each dosing period. Total severity scores of RP attacks during the last 7 days of screening period divided by the total number of RP attacks will be used as baseline for the analysis of all periods. The variable will be calculated similar to frequency data as before.

[1] = Cilnidipine 10 mg, 1st Baseline RCS subgroup, ITT Part A, last 7 days of dosing period
[2] = Cilnidipine 10 mg, Excluding Outliers, 1st Baseline RCS subgroup, ITT Part A, last 7 days of dosing period
[3] = Cilnidipine 10 mg, ITT Part A, last 7 days of dosing period
[4] = Cilnidipine 10 mg, Excluding Outliers, ITT Part A
[5] = Cilnidipine 10 mg, Excluding Outliers, by Baseline RCS: first subgroup of Table C-8, ITT Part A
[6] = Cilnidipine 10 mg, by Baseline RCS: first subgroup of Table C-7, ITT Part A
[7] = Cilnidipine 10 mg, excluding outliers, ITT Part A
[8] = Cilnidipine 10 mg, excluding outliers, severity 0-10, ITT Part A
[9] = Cilnidipine 10 mg, severity 0-10, ITT Part A
[10] = Cilnidipine 20 mg, 1st Baseline RCS subgroup, ITT Part A, last 7 days of dosing period
[11] = Cilnidipine 20 mg, Excluding Outliers, 1st Baseline RCS subgroup, ITT Part A, last 7 days of dosing period
[12] = Cilnidipine 20 mg, ITT Part A, last 7 days of dosing period
[13] = Cilnidipine 20 mg, Excluding Outliers, ITT Part A
[14] = Cilnidipine 20 mg, Excluding Outliers, by Baseline RCS: first subgroup of Table C-8, ITT Part A
[15] = Cilnidipine 20 mg, by Baseline RCS: first subgroup of Table C-7, ITT Part A
[16] = Cilnidipine 20 mg, excluding outliers, ITT Part A
[17] = Cilnidipine 20 mg, excluding outliers, severity 0-10, ITT Part A
[18] = Cilnidipine 20 mg, severity 0-10, ITT Part A
[19] = Pooled Cilnidipine 10 mg and Cilnidipine 10 mg + Tadalafil 5 mg, 1st Baseline RCS subgroup, ITT Part A, last 7 days of dosing period
[20] = Pooled Cilnidipine 10 mg and Cilnidipine 10 mg + Tadalafil 5 mg, 2nd Baseline RCS subgroup, ITT Part A, last 7 days of dosing period

With `COCCOC(=O)C1=C(C)NC(C)=C(C(=O)OC/C=C/c2ccccc2)C1c1cccc([N+](=O)[O-])c1` (stereo not shown) [Cilnidipine] the “Average Severity of Weekly Symptomatic RP Attacks, Change from Baseline, Mean” value [1] was 0.28, the “Average Severity of Weekly Symptomatic RP Attacks, Change from Baseline, Median” value [1] was 0.28 and the “Average Severity of Weekly Symptomatic RP Attacks, Mean” value [1] was 3.77. For the same compound, the “Average Severity of Weekly Symptomatic RP Attacks, Median” value [1] was 3.77, the “Average Severity of Weekly Symptomatic RP Attacks, Percent Change from Baseline, Mean” value [1] was 8.05% and the “Average Severity of Weekly Symptomatic RP Attacks, Percent Change from Baseline, Median” value [1] was 8.05%. For the same compound, the “Average Severity of Weekly Symptomatic RP Attacks, Change from Baseline, Mean” value [2] was 0.28, the “Average Severity of Weekly Symptomatic RP Attacks, Change from Baseline, Median” value [2] was 0.28 and the “Average Severity of Weekly Symptomatic RP Attacks, Mean” value [2] was 3.77. The “Average Severity of Weekly Symptomatic RP Attacks, Median” value [2] was 3.77, the “Average Severity of Weekly Symptomatic RP Attacks, Percent Change from Baseline, Mean” value [2] was 8.05% and the “Average Severity of Weekly Symptomatic RP Attacks, Percent Change from Baseline, Median” value [2] was 8.05%. The “Average Severity of Weekly Symptomatic RP Attacks, Percent Change from Baseline, Mean” value (Cilnidipine 10 mg, ITT Part A) was 8.05%, the “Average Severity of Weekly Symptomatic RP Attacks, Percent Change from Baseline, Median” value (Cilnidipine 10 mg, ITT Part A) was 8.05% and the “Average Severity of Weekly RP Attacks (All Attacks), Change from Baseline, Mean” value [3] was 0.02. The “Average Severity of Weekly RP Attacks (All Attacks), Change from Baseline, Median” value [3] was 0.02, the “Average Severity of Weekly RP Attacks (All Attacks), Mean” value [3] was 3.05 and the “Average Severity of Weekly RP Attacks (All Attacks), Median” value [3] was 3.05. The “Average Severity of Weekly RP Attacks (All Attacks), Percent Change from Baseline, Mean” value [3] was 0.55%, the “Average Severity of Weekly RP Attacks (All Attacks), Percent Change from Baseline, Median” value [3] was 0.55% and the “Average Severity (0-10) of weekly RP attacks, Median” value [4] was 3.05. The “Average severity of weekly RP attacks, Change from Baseline, Mean” value [4] was 0.02, the “Average severity of weekly RP attacks, Change from Baseline, Median” value [4] was 0.02 and the “Average severity of weekly RP attacks, Percent Change from Baseline, Mean” value [4] was 0.55%. For the same compound, the “Average severity of weekly RP attacks, Percent Change from Baseline, Median” value [4] was 0.55%, the “Average Severity (0-10) of weekly RP attacks, Mean” value [5] was 3.05 and the “Average Severity (0-10) of weekly RP attacks, Median” value [5] was 3.05. For the same compound, the “Average severity of weekly RP attacks, Change from Baseline, Mean” value [5] was 0.02, the “Average severity of weekly RP attacks, Change from Baseline, Median” value [5] was 0.02 and the “Average severity of weekly RP attacks, Percent Change from Baseline, Mean” value [5] was 0.55%. For the same compound, the “Average severity of weekly RP attacks, Percent Change from Baseline, Median” value [5] was 0.55%, the “Average Severity (0-10) of weekly RP attacks, Mean” value [6] was 3.05 and the “Average Severity (0-10) of weekly RP attacks, Median” value [6] was 3.05. The “Average severity of weekly RP attacks, Change from Baseline, Mean” value [6] was 0.02, the “Average severity of weekly RP attacks, Change from Baseline, Median” value [6] was 0.02 and the “Average severity of weekly RP attacks, Percent Change from Baseline, Mean” value [6] was 0.55%. For the same compound, the “Average severity of weekly RP attacks, Percent Change from Baseline, Median” value [6] was 0.55%, the “Average Severity of Weekly Symptomatic RP Attacks, Percent Change from Baseline, Mean” value [7] was 8.05% and the “Average Severity of Weekly Symptomatic RP Attacks, Percent Change from Baseline, Median” value [7] was 8.05%. For the same compound, the “Average Severity of Weekly Symptomatic RP Attacks, Change from Baseline, Mean” value [8] was 0.28, the “Average Severity of Weekly Symptomatic RP Attacks, Change from Baseline, Median” value [8] was 0.28 and the “Average Severity of Weekly Symptomatic RP Attacks, Mean” value [8] was 3.77. For the same compound, the “Average Severity of Weekly Symptomatic RP Attacks, Median” value [8] was 3.77, the “Average Severity of Weekly Symptomatic RP Attacks, Change from Baseline, Mean” value [9] was 0.28 and the “Average Severity of Weekly Symptomatic RP Attacks, Change from Baseline, Median” value [9] was 0.28. The “Average Severity of Weekly Symptomatic RP Attacks, Mean” value [9] was 3.77, the “Average Severity of Weekly Symptomatic RP Attacks, Median” value [9] was 3.77 and the “Severity (change)” value (Cilnidipine 20 mg (n = 3)) was −36%. For the same compound, the “Average Severity of Weekly Symptomatic RP Attacks, Change from Baseline, Mean” value [10] was −1.44, the “Average Severity of Weekly Symptomatic RP Attacks, Change from Baseline, Median” value [10] was −1.44 and the “Average Severity of Weekly Symptomatic RP Attacks, Mean” value [10] was 2.30. For the same compound, the “Average Severity of Weekly Symptomatic RP Attacks, Median” value [10] was 2.30, the “Average Severity of Weekly Symptomatic RP Attacks, Percent Change from Baseline, Mean” value [10] was −32.85% and the “Average Severity of Weekly Symptomatic RP Attacks, Percent Change from Baseline, Median” value [10] was −32.85%. For the same compound, the “Average Severity of Weekly Symptomatic RP Attacks, Change from Baseline, Mean” value [11] was −1.44, the “Average Severity of Weekly Symptomatic RP Attacks, Change from Baseline, Median” value [11] was −1.44 and the “Average Severity of Weekly Symptomatic RP Attacks, Mean” value [11] was 2.30. For the same compound, the “Average Severity of Weekly Symptomatic RP Attacks, Median” value [11] was 2.30, the “Average Severity of Weekly Symptomatic RP Attacks, Percent Change from Baseline, Mean” value [11] was −32.85% and the “Average Severity of Weekly Symptomatic RP Attacks, Percent Change from Baseline, Median” value [11] was −32.85%. The “Average Severity of Weekly Symptomatic RP Attacks, Percent Change from Baseline, Mean” value (Cilnidipine 20 mg, ITT Part A) was −32.85%, the “Average Severity of Weekly Symptomatic RP Attacks, Percent Change from Baseline, Median” value (Cilnidipine 20 mg, ITT Part A) was −32.85% and the “Average Severity of Weekly RP Attacks (All Attacks), Change from Baseline, Mean” value [12] was −1.07. The “Average Severity of Weekly RP Attacks (All Attacks), Change from Baseline, Median” value [12] was −1.07, the “Average Severity of Weekly RP Attacks (All Attacks), Mean” value [12] was 2.30 and the “Average Severity of Weekly RP Attacks (All Attacks), Median” value [12] was 2.30. The “Average Severity of Weekly RP Attacks (All Attacks), Percent Change from Baseline, Mean” value [12] was −27.26%, the “Average Severity of Weekly RP Attacks (All Attacks), Percent Change from Baseline, Median” value [12] was −27.26% and the “Average Severity (0-10) of weekly RP attacks, Mean” value [13] was 2.30. The “Average Severity (0-10) of weekly RP attacks, Median” value [13] was 2.30, the “Average severity of weekly RP attacks, Change from Baseline, Mean” value [13] was −1.07 and the “Average severity of weekly RP attacks, Change from Baseline, Median” value [13] was −1.07. For the same compound, the “Average severity of weekly RP attacks, Percent Change from Baseline, Mean” value [13] was −27.26%, the “Average severity of weekly RP attacks, Percent Change from Baseline, Median” value [13] was −27.26% and the “Average Severity (0-10) of weekly RP attacks, Mean” value [14] was 2.30. The “Average Severity (0-10) of weekly RP attacks, Median” value [14] was 2.30, the “Average severity of weekly RP attacks, Change from Baseline, Mean” value [14] was −1.07 and the “Average severity of weekly RP attacks, Change from Baseline, Median” value [14] was −1.07. For the same compound, the “Average severity of weekly RP attacks, Percent Change from Baseline, Mean” value [14] was −27.26%, the “Average severity of weekly RP attacks, Percent Change from Baseline, Median” value [14] was −27.26% and the “Average Severity (0-10) of weekly RP attacks, Mean” value [15] was 2.30. The “Average Severity (0-10) of weekly RP attacks, Median” value [15] was 2.30, the “Average severity of weekly RP attacks, Change from Baseline, Mean” value [15] was −1.07 and the “Average severity of weekly RP attacks, Change from Baseline, Median” value [15] was −1.07. For the same compound, the “Average severity of weekly RP attacks, Percent Change from Baseline, Mean” value [15] was −27.26%, the “Average severity of weekly RP attacks, Percent Change from Baseline, Median” value [15] was −27.26% and the “Average Severity of Weekly Symptomatic RP Attacks, Percent Change from Baseline, Mean” value [16] was −32.85%. The “Average Severity of Weekly Symptomatic RP Attacks, Percent Change from Baseline, Median” value [16] was −32.85%, the “Average Severity of Weekly Symptomatic RP Attacks, Change from Baseline, Mean” value [17] was −1.44 and the “Average Severity of Weekly Symptomatic RP Attacks, Change from Baseline, Median” value [17] was −1.44. For the same compound, the “Average Severity of Weekly Symptomatic RP Attacks, Mean” value [17] was 2.30, the “Average Severity of Weekly Symptomatic RP Attacks, Median” value [17] was 2.30 and the “Average Severity of Weekly Symptomatic RP Attacks, Change from Baseline, Mean” value [18] was −1.44. The “Average Severity of Weekly Symptomatic RP Attacks, Change from Baseline, Median” value [18] was −1.44, the “Average Severity of Weekly Symptomatic RP Attacks, Mean” value [18] was 2.30 and the “Average Severity of Weekly Symptomatic RP Attacks, Median” value [18] was 2.30. For the same compound, the “Average Severity of Weekly Symptomatic RP Attacks, Change from Baseline, Mean” value [19] was −1.22, the “Average Severity of Weekly Symptomatic RP Attacks, Change from Baseline, Median” value [19] was −1.22 and the “Average Severity of Weekly Symptomatic RP Attacks, Mean” value [19] was 3.34. The “Average Severity of Weekly Symptomatic RP Attacks, Median” value [19] was 3.34, the “Average Severity of Weekly Symptomatic RP Attacks, Percent Change from Baseline, Mean” value [19] was −20.18% and the “Average Severity of Weekly Symptomatic RP Attacks, Percent Change from Baseline, Median” value [19] was −20.18%. For the same compound, the “Average Severity of Weekly Symptomatic RP Attacks, Change from Baseline, Mean” value [20] was −1.13, the “Average Severity of Weekly Symptomatic RP Attacks, Change from Baseline, Median” value [20] was −1.13 and the “Average Severity of Weekly Symptomatic RP Attacks, Mean” value [20] was 5.23. The “Average Severity of Weekly Symptomatic RP Attacks, Median” value [20] was 5.23, the “Average Severity of Weekly Symptomatic RP Attacks, Percent Change from Baseline, Mean” value [20] was −17.81% and the “Average Severity of Weekly Symptomatic RP Attacks, Percent Change from Baseline, Median” value [20] was −17.81%. For the same compound, the “Average Severity of Weekly Symptomatic RP Attacks, Change from Baseline, Mean” value (Pooled Cilnidipine 10 mg and Cilnidipine 10 mg + Tadalafil 5 mg, Excluding Outliers, 1st Baseline RCS subgroup, ITT Part A, last 7 days of dosing period) was −1.22.
